According to patent publication US9056847B2, “Activity based probes (ABPs) interacting with glycosidases” (ACADEMISCH MEDISCH CENTRUM BIJ UNIVERSITEIT VAN AMSTERDAM, priority 2010, dated 2015):
Like-named read-outs stand apart in the source and are kept apart here.

Tests used:
[1] = test system: lactase; assay: Lactose competition of MDW933 labeling in intestinal homogenates; format: biochemical, mouse; details: lactose 250 mM
Text: FIG. 32 Indenfication of the 160 kDa protein. […] (b) Quantification of the observed fluorescent signal. Data represent mean values±s.d.

[2] = molecular target: T1, GBA (Homo sapiens (Human), UniProt P04062); assay: Fluorescence microscopy of probe-labeled fibroblasts; format: cell-based; details: 5 nM, 2 h
T1 sequence (P04062 40-536): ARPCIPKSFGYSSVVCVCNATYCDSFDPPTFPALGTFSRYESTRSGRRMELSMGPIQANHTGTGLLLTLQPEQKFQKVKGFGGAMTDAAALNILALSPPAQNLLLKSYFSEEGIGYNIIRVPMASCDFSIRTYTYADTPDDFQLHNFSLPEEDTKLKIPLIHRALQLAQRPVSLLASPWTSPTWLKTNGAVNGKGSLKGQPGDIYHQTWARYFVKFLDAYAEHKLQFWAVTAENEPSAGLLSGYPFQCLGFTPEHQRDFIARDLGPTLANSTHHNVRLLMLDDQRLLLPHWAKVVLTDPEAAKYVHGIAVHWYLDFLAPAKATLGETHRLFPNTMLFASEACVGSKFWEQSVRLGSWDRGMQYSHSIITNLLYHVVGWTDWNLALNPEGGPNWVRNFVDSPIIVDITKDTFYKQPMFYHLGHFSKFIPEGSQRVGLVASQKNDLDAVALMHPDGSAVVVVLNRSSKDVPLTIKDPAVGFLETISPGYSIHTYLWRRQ
Procedure: We studied in situ labeling of GBA in cells using fluorescence-activated cell sorting (FACS) analysis. We first preincubated cells in the absence or presence of CBE and subsequently incubated the cells with a subsaturating or an excess amount of the green fluorescent probe 5. […] These positive results prompted us to analyze labeling of the cells with fluorescence microscopy (FIG. 25c-f). […] We also detected GBA protein by indirect immunofluorescence using the specific anti-GBA monoclonal antibody 8E4 (ref. 29). Using multispectral image analysis, we could specifically distinguish the respective fluorescent emission spectra (FIG. 25d-e) from autofluorescent background (FIG. 25c). […] As probes with a hydrophobic BODIPY moiety might nonspecifically be retained in membranes, in particular the plasma membrane, we studied this possibility more closely. […] These control probes did inhibit GBA in vitro with IC^50 values of 41 and 95 μM, respectively. However, inhibition is presumably reversible.
Fibroblasts were cultured on glass slides. […] Next, cells were washed, fixed with 3% (v/v) paraformaldehyde in PBS for 15 min, washed and incubated first with 0.05% (w/v) saponine for 15 min, next with 0.1 mM NH4Cl in PBS for 10 min and then with 3% (w/v) bovine serum albumin in PBS for 1 h. Next, the slides were incubated with anti-GBA monoclonal antibody 8E4 (1:500). […]

[3] = molecular target: T2, GBA (Homo sapiens (Human), UniProt P04062, R534H); assay: GBA enzyme activity assay with 4-methylumbelliferyl β-D-glucopyranoside, inhibitor preincubated 30 min (apparent IC50); format: biochemical
T2 sequence (P04062 40-536 R534H): as the sequence (P04062 40-536) above, with R495H counted along it

[4] = molecular target: T2, GBA; assay: Continuous substrate release assay for inhibition constants; format: biochemical; details: for Ki: equilibrium constant for initial binding; for Ki / ki: reported with s.e.m.; for ki: rate constant; for ki/Ki: relative rate constant
Text: Previously discontinuous methods have been used to determine the inhibition constants of glycosidase inhibitors. […] Therefore the inhibition constants have been determined in a continuous substrate assay which was first described in 1982 (2) and has recently been reappraised in 2010 (3). In these experiments, inhibition of the enzyme and hydrolysis of the substrate proceed concurrently making the situation slightly more complex than the discontinuous (FIG. 39 Scheme 2). The time-dependent interaction of inhibitor (I) with free β-glucosidase (E) was considered to occur in separate stages (A). A rapid reversible interaction is followed by a slower, irreversible reaction that transforms the reversible enzyme-inhibitor complex (EI) into an irreversible enzyme-inhibitor complex (EI*) (FIG. 39 Scheme 2). Progress curves were obtained (FIG. 28a) and apparent rate constant k′ was plotted versus the concentration (FIG. 28b) to obtain estimates of the Ki (equilibrium constant) and ki (rate constant)
To 100 μL McIlvaine buffer (pH 5.2, 0.2% sodium taurocholate, 0.1% Triton X-100) containing 4-methylumbelliferyl β-D-glucoside (7.5 mM) in Greiner flat bottom black 96-well plate was added 5 μL inhibitor (25× stock in DMSO). The resulting mixture was preincubated at 37° C. for 15 min in a TECAN GENios microplate reader. GBA (2 ng) in McIlvaine buffer (20 μL pH 5.2, 0.2% sodium taurocholate, 0.1% Triton X-100) was preheated to 37° C. for 15 min before being added to the substrate mix. The resulting solution was mixed by horizontal shaking for 15 sec, after which release 4-methylumbelliferyl measured with a TECAN GENios platereader (λex 340 nm and λem 465 nm) for the indicated time. Bleaching of the fluorophore, which was observed during the assay, was corrected by subtracting blanks (100 μL substrate buffer, 5 μL DMSO, 20 μL McIlvaine buffer). Apparent rate constants k′ were obtained by fitting the resulting progress curves (FIG. 28A) to the one-phase association equitation y (y max y0)(1−exp^−kt)yo+in GraphPad Prism version 5.00 for Windows, GraphPad Software, San Diego Calif. USA, www.graphpad.com. Measurements were performed in nine fold and plotting of the obtained k′ values versus [^I0] yielded rectangular hyperbolar functions (FIG. 28B).
[formula] estimates of Ki app and ki were obtained. The Ki value in the absence of substrate was obtained by correcting the Ki app with […]

[5] = molecular target: GBA1 (Homo sapiens (Human), UniProt P04062); assay: Kinetic constants of GBA1 inhibition (Table 2); format: biochemical; details: Table 2 kinetic constants
GBA1, sequence (P04062 40-536): as the sequence (P04062 40-536) above

[6] = molecular target: T1, GBA; assay: Time-lapse microscopy of GBA labeling in intact fibroblasts; format: cell-based; details: 5 nM
Procedure: (§1) We next studied the labeling of GBA by MDW941 in intact fibroblasts using time-lapse microscopy. […] As a control, matched mice received the buffer solution intravenously. […] In addition to GBA, MDW933 clearly labeled other proteins that occur in the intestine in the mouse.
(§2) With the 37° C., 10% CO2 incubator enclosing the microscope, cells were imaged every 5 min for 2 hours simultaneously using fluorescence microscopy with an N2.1 filter block and phase-contrast brightfield microscopy (Leica IR-BE with Z-motor drive and a Plan APO 63×/1.40 oil immersion objective (Leica Microsystems, Rijswijk, The Netherlands), equipped with a KX85 camera, Apogee Instruments, Auburn, Calif., USA). […] An auto-focus routine was applied during acquisition. Images were analyzed using TimeLapseAVI 5.1.4 software (©Ron Hoebe, CMO, AMC, University of Amsterdam, The Netherlands; R.A.Hoebe@amc.uva.nl).

[7] = test system: fibroblasts; assay: Toxicity monitoring by live-cell imaging of fibroblasts; format: cell-based, human; details: after 100 h of exposure
Procedure: as §1
as §2, with “cells were imaged every 5 min for 2 hours simultaneously using fluorescence” left out

[8] = molecular target: T2, GBA; assay: Competition assay for labeling of recombinant GBA with MDW933; format: biochemical; details: 2 mM, 30 min
[9] = molecular target: T2, GBA; assay: Reversibility of isofagomine competition for active site labeling; format: biochemical; details: pH 5.2, wash before labeling with MDW933 (10 nM for 15 min)
[10] = molecular target: N370S GBA (Homo sapiens (Human), UniProt P04062, N370S); assay: Chaperone experiment using isofagomine in N370S GBA fibroblasts; format: cell-based; details: 7 d, 0, 10, 30 and 300 nM
N370S GBA, sequence (P04062 40-536 N409S): as the sequence (P04062 40-536) above, with N370S counted along it

[11] = recombinant GBA, in vitro, read-out: apparent half-maximal inhibitory concentration (IC50)
[12] = rec. GBA1, 30 min, 37 C., pH 5.2 + Tch, Tr, read-out: Apparent IC50 (nM) rec. GBA1: 30 min, 37 C., pH 5.2 + Tch, Tr

## OC[C@H]1O[C@@H](O[C@H]2[C@H](O)[C@@H](O)C(O)O[C@@H]2CO)[C@H](O)[C@@H](O)[C@H]1O (stereo partly shown) [lactose]
[1]
  reduction of labeling of the high-molecular weight protein in the intestinal fraction: < 90%

## COc1ccc(C2=[N+]3C(=C(CCCCc4cn(C[C@H]5C=C[C@H](O)[C@@H](O)[C@@H]5O)nn4)c4ccc(-c5ccc(OC)cc5)n4[B-]3(F)F)C=C2)cc1 [MDW1065]
[2]
  labeling of fibroblasts: hardly any detectable labeling
[3]; [11]
  IC50: 95000 nM

## CC1=CC(C)=[N+]2C1=C(CCCCc1cn(C[C@H]3C=C[C@H](O)[C@@H](O)[C@@H]3O)nn1)c1c(C)cc(C)n1[B-]2(F)F [MDW1064]
[3]; [11]
  IC50: 41000 nM

## Cc1cc(=O)oc2cc(O[C@@H]3O[C@H](CO)[C@@H](O)[C@H](O)[C@H]3O)ccc12 [4-methylumbelliferyl β-D-glucoside, reference compound]
[4]
  Km: 1200 µM

## [N-]=[N+]=NC[C@@H]1[C@@H](O)[C@H](O)[C@@H](O)[C@@H]2O[C@H]12 [KY170, (2S,3R,4S,5S)-8-azido-8-deoxy-cyclophellitol]
[3]; [12]
  IC50: 150 ± 30 nM
[3]; [11]
  IC50: 120 ± 4 nM
[4]
  Ki: 44 ± 7 nM
  ki: 0.035 ± 0.003 min⁻¹
  ki/Ki: 13200 M⁻¹ s⁻¹
[5]
  Ki: 83 nM

## COc1ccc(C2=[N+]3C(=C(CCCCc4cn(C[C@@H]5[C@@H](O)[C@H](O)[C@@H](O)[C@@H]6O[C@H]56)nn4)c4ccc(-c5ccc(OC)cc5)n4[B-]3(F)F)C=C2)cc1 [MDW941]
[6]
  time to maximum labeling: ≤ 15 min
[3]; FIG. 16, ABPs designed for GBA1, read-out: IC50
  IC50: 2 nM
[3]; recombinant GBA, read-out: apparent half-maximal inhibitory concentration (IC50)
  IC50: 1.94 ± 0.08 nM
[4]
  Ki: 8 ± 3 nM
  ki: 0.208 ± 0.063 min⁻¹
  ki/Ki: 418300 M⁻¹ s⁻¹
[7]
  signs of apoptosis or toxicity: did not show any signs of apoptosis or toxicity
[5]
  Ki: 1.56 nM
  ki: 0.0236 min⁻¹

## OC[C@@H]1[C@@H](O)[C@H](O)[C@@H](O)[C@@H]2O[C@H]12 [Cyclophellitol 3, cyclophellitol, reference compound]
[3]; [11]
  IC50: 150 ± 9 nM
[4]
  Ki: 152 ± 26 nM
  ki: 0.078 ± 0.010 min⁻¹
  ki/Ki: 8570 M⁻¹ s⁻¹

## O[C@H]1[C@H](O)[C@@H](O)[C@@H]2O[C@@H]2[C@@H]1O [CBE, Conduritol B-epoxide, reference compound]
[3]; [12]
  IC50: 12000 nM
[8]
  effect of preincubation on labeling with MDW933: blocked labeling completely
[4]
  Ki: 53000 ± 10800 nM
  ki: 0.217 ± 0.026 min⁻¹
  ki/Ki: 67 M⁻¹ s⁻¹
[5]
  Ki: 7730 nM
  ki: 0.0244 min⁻¹

## OC[C@H]1CNC[C@@H](O)[C@@H]1O [isofagomine]
[9]
  reversibility of competition for the active site: fully reversible
[10]
  GBA enzyme activity in cell homogenates: modest isofagomine dose-dependent increase
  fluorescent MDW941-labeled GBA quantified on gel: modest dose-dependent increase
